How the values were obtained:
[1] = Osmolality of contrast medium solutions; format: physicochemical
[2] = Viscosity of contrast medium solutions; format: physicochemical; settings: for Viscosity: 37° C.
Renal excretion = format: in vivo; settings: in words
Chemical stability = format: physicochemical; settings: in words
Water solubility = format: physicochemical; settings: in words
mouse = test: LD50 mouse i.v.; format: in vivo

| Compound | Osmolality ([1]; 370 mg I/ml (37° C.)) [mosm/kg H2 O] | Viscosity ([2]; 370 mg I/ml) [cP] | LD50 (mouse) [g I/kg] | Osmolality ([1]; 350 mg I/ml (*) (37° C.)) [mosm/kg H2 O] | Viscosity ([2]; 350 mg I/ml (*)) [cP] | also measured |
| --- | --- | --- | --- | --- | --- | --- |
| CN(CC(O)CO)C(=O)c1c(I)c(NC(=O)CO)c(I)c(C(=O)NCCO)c1I (stereo not shown) [Example 1, 5-Hydroxyacetamido-2,4,6-triido-isophthalic acid-(2,3-dihydroxy-N-methyl-propyl)-(2-hydroxy-ethyl)-diamide] | 590 | 6.6 | 18 |  |  | Improvement of osmolality value ([1]; in comparison with iopromide): 23.4%; Improvement of viscosity value ([2]; in comparison with iopromide): 30.5%; Renal excretion (Renal excretion): very quick, selective renal excretion; Chemical stability (Chemical stability): good chemical stability; Water solubility (Water solubility): very water-soluble |
| CC(=O)N(CC(O)CO)c1c(I)c(C(=O)NCC(O)CO)c(I)c(C(=O)NCC(O)CO)c1I (stereo not shown) [Iohexol] |  |  | 15 | 820 | 10.5 |  |
| CN(C(=O)CO)c1c(I)c(C(=O)NCC(O)CO)c(I)c(C(=O)NCC(O)CO)c1I (stereo not shown) [Iomeprol] | 680 | 8.6 | 14 |  |  | Greatest improvement of osmolality within the previously known five contrast media ([1]; Iopamidol/Iomeprol (Iomeprol versus Iopamidol)): 18.1% |
| C[C@H](O)C(=O)Nc1c(I)c(C(=O)NC(CO)CO)c(I)c(C(=O)NC(CO)CO)c1I [Iopamidol] | 830 | 9.4 | 15 |  |  |  |
| COCC(=O)Nc1c(I)c(C(=O)NCC(O)CO)c(I)c(C(=O)N(C)CC(O)CO)c1I (stereo not shown) [Iopromide] | 770 | 9.5 | 15 |  |  |  |
| CC(=O)N(CC(O)CO)c1c(I)c(C(=O)NCCO)c(I)c(C(=O)NCC(O)CO)c1I (stereo not shown) [Ioxilan] |  |  | 15 | 700 | 8.1 | Greatest improvement of viscosity within the previously known five contrast media ([2]; Iohexol/Ioxilan (Ioxilan versus Iohexol)): 22.9% |

— patent publication US5232685A, “Nonionic x-ray contrast medium with high iodine content” (Schering Aktiengesellschaft, priority 1989, dated 1993)
